According to patent publication US20100015245A1, “Combination of Copper Cations with Peroxides or Quaternary Ammonium Compounds for the Treatment of Biofilms” (priority 2008, published 2010):
Values joined by “and” are separate entries in the source; they are usually repeats but may differ in a detail not shown here. Equal entries are not always repeated. Where two headings read alike, the source gives them in different places.

What was measured:
[1] = test system: P. aeruginosa ATCC 15442 biofilms; assay: High-throughput biofilm susceptibility screening with checkerboard plates (Calgary Biofilm Device), OD650 endpoint; format: cell-based, Pseudomonas aeruginosa
nitrate reductase (NR) = assay: Nitrate reductase activity of cytosolic fractions of treated cultures (methyl viologen assay); format: biochemical, Pseudomonas aeruginosa; conditions: cells grown with 1 mM CuSO4 and/or 25 ppm Polycide®
Procedure: (§1) FIGS. 6A-C. Cell survival and nitrate (NO3) reduction by anaerobic P. aeruginosa ATCC 15442 cultures grown in the presence of Cu^2+ and Polycide®, alone and in combination. An aerobic starter culture was grown overnight in TSB and this was diluted 1 in 500 to get a starting cell count of 1×10^7 CFU/mL for anaerobic cultures. These cells were grown in BHI broth, with and without the addition of 1 mM KNO3, for 6 h prior to the addition of 1 mM CuSO4, 25 ppm Polycide , or 1 mM CuSO4+25 ppm Polycide®. Following an additional 48 h incubation at 37° C., aliquots were removed to determine (FIG. 6A) mean viable cell counts and (FIG. 6B) log-killing. Remaining cells from anaerobic cultures were lysed and fractionated into cytosolic and membrane components. The cytosolic components were assayed for (FIG. 6C) nitrate reductase (NR) activity. In this figure, each bar represents the mean and standard deviation of 3 to 8 independent replicates. NR activity calculations were corrected for baseline shifts in spectrophotometric measurements caused by the presence of oxygen in water, which reacts with reduced methyl viologen over time.
Protein fractionation and nitrate reduction assays. […] Nitrate reductase activity was determined spectrophotometrically at 575 nm for cytoplasmic fractions, using methyl viologen as an electron donor, as previously described (Jones et al., 1977; Magalon et al., 1998).

[2] = test system: P. aeruginosa ATCC 27853 biofilms; assay: Confocal-laser scanning microscopy (CLSM) with Live/Dead staining of biofilms; format: cell-based, Pseudomonas aeruginosa; conditions: 8 mM Cu^2+ and/or 200 ppm Polycide®, qualitative
Procedure: Confocal-laser scanning microscopy (CLSM). Pegs were broken from the lid of the CBD using needle nose pliers. Cell viability staining of P. aeruginosa ATCC 27853 biofilms using the Live/Dead® BacLight™ Kit (Molecular Probes, Burlington, ON, Canada) was carried out according to the method as previously described (Harrison et al., 2007). Here, biofilms exposed to metals and/or biocides were rinsed twice with 0.9% saline and then stained with Syto-9 and propidium iodide at 30° C. for 30 min. Fluorescently labeled biofilms were placed in two drops of 0.9% saline on the surface of a glass coverslip. These pegs were examined using a Leica DM IRE2 spectral confocal and multiphoton microscope with a Leica TCS SP2 acoustic optical beam splitter (AOBS) (Leica Microsystems, Richmond Hill, ON, Canada) as previously described (Harrison el al., 2007). To eliminate artefacts associated with single wavelength excitation, Live/Dead® stained samples were sequentially scanned, frame-by-frame, first at 488 nm and then at 543 nm. Fluorescence emission was then sequentially collected in the green and red regions of the spectrum. […]
Up to this point, the inventors have assessed the antimicrobial action of Cu^2+ and Polycide® using viable cell counting; however, there is an alternate method of assessing biofilm cell survival: CLSM in conjunction with Live/Dead® staining. […]

[3] = test system: microaerobic cultures of P. aeruginosa ATCC 15442; assay: Cell survival of microaerobic (anaerobic) planktonic cultures; format: cell-based, Pseudomonas aeruginosa; conditions: 1 mM CuSO4 and/or 25 ppm Polycide®, 48 h at 37° C., BHI broth
Procedure: as §1
Strains and growth media. All of the microbial strains used in this study are summarized in TABLE 1 and all were stored at −70° C. in Microbank™ vials (ProLab Diagnostics, Toronto, Canada) according to the manufacturer's directions. […]

[4] = 5 min exposure, double distilled water, single agent, median
[5] = 30 min exposure, double distilled water, single agent, median
[6] = 24 h exposure, 10% tryptic soy broth/0.9% NaCl, single agent, median

| SMILES | Biofilm minimum bactericidal concentration (MBCb) [1] | Biofilm minimum bactericidal concentration (MBCb) [1, 4] | Biofilm minimum bactericidal concentration (MBCb) [1, 5] | Biofilm minimum bactericidal concentration (MBCb) [1, 6] | Nitrate reduction capacity / NR activity of cell lysates (nitrate reductase (NR)) | Bacterial cell survival in biofilms by Live/Dead staining [2] | Effect on microaerobic cultures (viable cell counts, log-killing) [3] |
| --- | --- | --- | --- | --- | --- | --- | --- |
| O=S(=O)([O-])[O-].[Zn+2] [Zn^2 +, zinc sulfate] | >31 mM | – | – | – | – | – | – |
| O=[Se]([O-])[O-].[Na+].[Na+] [SeO3^2−, Sodium selenite] | – | >16 mM | >16 mM | >16 mM | – | – | – |
| O=[N+]([O-])[O-].[Ag+] [Ag^+, silver nitrate] | – | >19 mM | >19 mM | >19 mM | – | – | – |
| O=S(=O)([O-])[O-].[Cu+2] [Cu^2+, cupric sulfate] | >32 mM and 32 mM | – | – | – | significantly reduced capacity for nitrate reduction | killed a significant portion of the bacterial population | bacteriostatic |
| CC(C)O [Isopropyl Alcohol, Isopropyl alcohol] | – | 0.50% | 0.50% | 0.50% | – | – | – |
